Test [1] has as its system MGC-803. In words: Inhibition of cell […] in human MGC-803 cells at 50 nM incubated for 24 hrs by scratch wound healing assay. The format is functional, cell-based.
Test [2] deals with RKO. In words: Inhibition of cell migration in human RKO cells assessed as reduction in tumor wound healing incubated for 24 hrs by microscopic analysis. It counts as functional, cell-based. The following applies: dose 10-90 nM.
The subject of test [3] is SW480. The test can be described thus: Antiproliferative activity against human SW480 cells assessed as reduction in cell viability incubated for 72 hrs by MTT assay. The format is functional, cell-based. The following applies: SW480, 72 h. On the technique in general: Formazan colour is commonly taken as a measure of viable cells.
For test [4], the system named is LoVo. In words: Antiproliferative activity against human LoVo cells assessed as reduction in cell viability incubated for 72 hrs by MTT assay. The format is functional, cell-based.
The test system of test [5] is RKO. The test can be described thus: Antiproliferative activity against human RKO cells assessed as reduction in cell viability incubated for 72 hrs by MTT assay. It counts as functional, cell-based.
The subject of test [6] is HGC-27. The test can be described thus: Antiproliferative activity against human HGC-27 cells assessed as reduction in cell viability incubated for 72 hrs by MTT assay. Conditions: HGC-27, 72 h. It counts as functional, cell-based.
Test [7] has as its system SGC-7901. In words: Antiproliferative activity against human SGC-7901 cells assessed as reduction in cell viability incubated for 72 hrs by MTT assay. The format is functional, cell-based. The following applies: SGC-7901, 72 h.
Test [8] has as its system MGC-803. In words: Antiproliferative activity against human MGC-803 cells assessed as reduction in cell viability incubated for 72 hrs by MTT assay. The format is functional, cell-based. The following applies: MGC-803, 72 h.
In test [9] the test system is GES1. The test can be described thus: Antiproliferative activity against human GES1 cells assessed as reduction in cell viability incubated for 72 hrs by MTT assay. It counts as functional, cell-based. Conditions: GES1, 72 h.
The test system of test [10] is MGC-803. In words: Induction of apoptosis in human MGC-803 cells assessed as late apoptotic cells at 0.2 uM incubated for 24 hrs by propidium iodide and Annexin V/FITC staining based flow cytometry assay (reference value: 4.10%). It counts as functional. For orientation: In flow cytometry, cells or beads pass a laser one at a time.
The test system of test [11] is MGC-803. In words: Induction of cell cycle arrest in human MGC-803 cells assessed as accumulation of cells at G2/M phase at 0.2 uM incubated for 24 hrs by propidium iodide staining based flow cytometry analysis. It counts as functional.
Test [12] has as its system RKO. In words: Induction of cell cycle arrest in human RKO cells assessed as accumulation of cells at G2/M phase at 0.2 uM incubated for 24 hrs by propidium iodide staining based flow cytometry analysis. It counts as functional.
The test system of test [13] is RKO. The test can be described thus: Induction of cell cycle arrest in human RKO cells assessed as accumulation of cells at S phase at 0.2 uM incubated for 24 hrs by propidium iodide staining based flow cytometry analysis. It counts as functional.
Test [14] has as its system MGC-803. In words: Induction of apoptosis in human MGC-803 cells assessed as early apoptotic cells at 0.2 uM incubated for 24 hrs by propidium iodide and Annexin V/FITC staining based flow cytometry assay (reference value: 1.85%). It counts as functional.
The subject of test [15] is RKO. In words: Induction of apoptosis in human RKO cells assessed as early apoptotic cells at 0.2 uM incubated for 24 hrs by propidium iodide and Annexin V/FITC staining based flow cytometry assay (reference value: 0.16%). It counts as functional.
Test [16] deals with RKO. In words: Induction of apoptosis in human RKO cells assessed as late apoptotic cells at 0.2 uM incubated for 24 hrs by propidium iodide and Annexin V/FITC staining based flow cytometry assay (reference value: 0.50%). It counts as functional.
Test [17] deals with MGC-803. The test can be described thus: Induction of morphological changes in human MGC-803 cells at 0.2 uM incubated for 24 hrs by Giemsa staining based micrscopic analysis. The format is functional, cell-based.
Test [18] has as its system RKO. In words: Induction of morphological changes in human RKO cells at 0.2 uM incubated for 24 hrs by Giemsa staining based micrscopic analysis. It counts as functional, cell-based.
The target of test [19] is T1, DNA topoisomerase 1 (Homo sapiens) (UniProt P11387).
T1 sequence (whole entry): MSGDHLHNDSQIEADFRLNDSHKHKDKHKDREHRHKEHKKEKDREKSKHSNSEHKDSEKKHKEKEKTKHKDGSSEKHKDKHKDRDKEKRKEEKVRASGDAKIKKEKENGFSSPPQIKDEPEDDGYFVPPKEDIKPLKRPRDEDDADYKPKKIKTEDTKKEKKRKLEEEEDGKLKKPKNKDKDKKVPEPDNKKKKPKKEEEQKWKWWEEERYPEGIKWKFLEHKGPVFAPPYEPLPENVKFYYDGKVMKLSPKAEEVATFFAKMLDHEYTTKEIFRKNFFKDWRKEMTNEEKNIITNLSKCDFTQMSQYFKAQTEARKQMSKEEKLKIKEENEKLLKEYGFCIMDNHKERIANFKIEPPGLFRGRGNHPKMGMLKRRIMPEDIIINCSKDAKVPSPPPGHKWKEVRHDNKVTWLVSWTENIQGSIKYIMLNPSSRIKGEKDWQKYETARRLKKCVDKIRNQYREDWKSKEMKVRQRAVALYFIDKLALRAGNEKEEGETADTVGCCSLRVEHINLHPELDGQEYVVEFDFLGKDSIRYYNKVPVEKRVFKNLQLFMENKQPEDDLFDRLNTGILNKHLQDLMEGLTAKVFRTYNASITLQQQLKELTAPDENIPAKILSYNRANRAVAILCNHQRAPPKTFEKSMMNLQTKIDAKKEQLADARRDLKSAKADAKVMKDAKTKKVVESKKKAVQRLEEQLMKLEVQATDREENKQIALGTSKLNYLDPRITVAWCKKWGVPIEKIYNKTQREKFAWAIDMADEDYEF
The test can be described thus: Inhibition of topoisomerase 1 (unknown origin) at 200 uM using PBR322 DNA as substrate incubated for 30 mins by agarose gel electrophoresis.

In test [20] the test system is MGC-803. The test can be described thus: Induction of cell cycle arrest in human MGC-803 cells at 0.2 uM incubated for 24 hrs by propidium iodide staining based flow cytometry analysis. It counts as functional.
Test [21] relates to RKO. The test can be described thus: Induction of cell cycle arrest in human RKO cells at 0.2 uM incubated for 24 hrs by propidium iodide staining based flow cytometry analysis. The format is functional.

The source made the active and inactive calls. The rule behind the calls is not given here.

With `CC[C@@]1(O)C(=O)OCc2c1cc1n(c2=O)Cc2cc3c(CN(C)C)c(O)ccc3nc2-1` [TOPOTECAN], the inhibition result in test [1] and in test [2] was “inactive” each time. Moreover, the IC50 in test [3] is 90 nM; in [4], 120 nM; in test [5], 420 nM; in test [6] it was 490 nM; in test [7] it was 690 nM; in test [8], 420 nM. Besides, the IC50 in test [9] amounted to 1060 nM. The Activity in test [10] worked out at 3.67%; in test [11], 82.29%; in test [12] it was 31.92%; in [13] it was 67.69%; in [14], 5.11%; in [15], 14.2%. Further, the Activity in [16] was found to be 19.28%. In addition, the result in test [17] and in test [18] was inactive. Besides, the inhibition entry in [19] was “Active”.
In the case of `CN1c2ccccc2C(=O)N2CCc3c([nH]c4ccccc34)C21` (racemic), the result in test [20], in test [21], in test [17] and in test [18] was inactive. The inhibition result in [1] and in test [2] was “inactive” throughout. In addition, the half-inhibitory concentration (IC50) in [3] was over 30000 nM; in test [4] it was 24200 nM; in test [5], 29600 nM; in [6], over 30000 nM; in test [7], 17700 nM; in test [8], 8520 nM. For the same molecule, the IC50 in [9] was over 30000 nM. Further, the Activity in [10] was 5.24%; in [14] it was 3.15%; in [15], 4.63%; in test [16], 7.71%. Further, in test [19], the inhibition result is “Active”.

As a reminder, the IC50 is the point on the concentration scale where inhibition reaches its midpoint.

(Values after ChEMBL document CHEMBL5321222, “N(14)-substituted evodiamine derivatives as dual topoisomerase 1/tubulin-Inhibiting anti-gastrointestinal tumor agents” (Eur J Med Chem, 2023).)
